Measured values from patent US9475773B2, “NK3 receptor antagonist compound (NK3RA) for use in a method for the treatment of polycystic ovary syndrome (PCOS)” (ASTRAZENECA AB, priority 2013, dated 2016).

Key:
rats = experiment: Single and repeat-dose toxicology in rats; format: in vivo, rat
Experimental: Relative epididymis weight was lower at 2000 mg/kg/day.

hERG channel = hERG channel (Homo sapiens, UniProt Q12809); experiment: hERG channel in vitro (tail current); format: cell-based
[1] = Pharmacokinetics in humans (healthy male subjects); format: in vivo, human
Experimental: Pharmacokinetic properties have been investigated in healthy male subjects. […] The elimination half-life for the NK3RA was approximately 7 hours. […] Renal elimination of the NK3RA or its metabolite was negligible. Following multiple dose administration, pharmacokinetic steady state was achieved within 4 days. At steady state, the exposure to the metabolite was approximately 66% of the parent circulated; the accumulation of the NK3RA in the plasma was minimal following QD dosing and was greater following BID dosing.

NK2 = target: T1, NK2 (Homo sapiens, UniProt P21452); experiment: Specificity over other tachykinin receptors (NK2); format: binding
T1 sequence (P21452 1-398): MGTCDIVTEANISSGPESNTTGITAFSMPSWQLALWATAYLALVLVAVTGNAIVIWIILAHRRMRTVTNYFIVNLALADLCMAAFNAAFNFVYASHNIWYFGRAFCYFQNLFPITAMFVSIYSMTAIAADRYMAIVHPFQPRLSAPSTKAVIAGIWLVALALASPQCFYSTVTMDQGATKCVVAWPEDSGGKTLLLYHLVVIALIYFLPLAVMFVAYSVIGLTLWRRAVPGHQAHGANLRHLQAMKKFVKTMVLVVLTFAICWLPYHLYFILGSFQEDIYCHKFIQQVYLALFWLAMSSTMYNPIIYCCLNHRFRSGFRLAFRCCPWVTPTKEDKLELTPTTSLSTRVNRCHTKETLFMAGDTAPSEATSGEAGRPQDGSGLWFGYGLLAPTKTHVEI

[2] = rat 3 month study, 2000 mg/kg/day

Chain of hERG channel (Q12809 whole entry): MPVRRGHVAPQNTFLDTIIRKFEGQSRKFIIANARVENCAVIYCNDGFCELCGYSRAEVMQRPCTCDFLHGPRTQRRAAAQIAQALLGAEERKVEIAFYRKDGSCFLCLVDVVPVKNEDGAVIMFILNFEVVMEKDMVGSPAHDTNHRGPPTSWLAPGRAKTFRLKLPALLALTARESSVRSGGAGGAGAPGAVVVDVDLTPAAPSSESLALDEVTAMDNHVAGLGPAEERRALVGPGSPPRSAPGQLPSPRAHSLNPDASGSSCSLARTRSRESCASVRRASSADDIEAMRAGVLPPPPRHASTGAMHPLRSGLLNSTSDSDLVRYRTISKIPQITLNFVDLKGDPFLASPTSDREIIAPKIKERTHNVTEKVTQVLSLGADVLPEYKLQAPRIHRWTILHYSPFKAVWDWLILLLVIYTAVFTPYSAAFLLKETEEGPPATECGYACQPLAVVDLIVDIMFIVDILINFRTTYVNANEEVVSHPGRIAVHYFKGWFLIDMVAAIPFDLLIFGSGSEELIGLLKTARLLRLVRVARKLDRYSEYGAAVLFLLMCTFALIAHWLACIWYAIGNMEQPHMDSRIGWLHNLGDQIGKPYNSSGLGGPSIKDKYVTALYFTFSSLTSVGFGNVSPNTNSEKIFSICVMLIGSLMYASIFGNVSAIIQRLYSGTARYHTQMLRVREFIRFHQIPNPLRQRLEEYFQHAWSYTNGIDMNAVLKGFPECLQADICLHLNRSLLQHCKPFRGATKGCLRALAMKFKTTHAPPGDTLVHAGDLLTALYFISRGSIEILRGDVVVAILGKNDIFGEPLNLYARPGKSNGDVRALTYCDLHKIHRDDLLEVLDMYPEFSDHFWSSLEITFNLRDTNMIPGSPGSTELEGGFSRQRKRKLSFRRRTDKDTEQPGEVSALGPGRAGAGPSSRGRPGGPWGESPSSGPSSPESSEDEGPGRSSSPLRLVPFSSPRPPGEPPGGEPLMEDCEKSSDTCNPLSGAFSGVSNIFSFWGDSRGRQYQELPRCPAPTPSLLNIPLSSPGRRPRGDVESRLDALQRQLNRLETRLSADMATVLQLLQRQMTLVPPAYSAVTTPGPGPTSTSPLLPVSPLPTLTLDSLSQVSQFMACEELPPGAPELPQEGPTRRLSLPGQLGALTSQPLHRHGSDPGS

SMILES: CC[C@H](NC(=O)c1c(NS(C)(=O)=O)c(-c2ccccc2)nc2ccccc12)c1ccccc1 [NK3RA, 3-(methanesulfonamido)-2-phenyl-N-[(1S)-1-phenylpropyl]quinoline-4-carboxamide]
- histological changes (rats; rat 3 month study): no NK3RA-related histological changes
- absolute testis weight (rats; [2]): lower
- relative epididymis weight (rats; [2]): lower
- relative testis weight (rats; rat 3 month study, 200 and 2000 mg/kg/day (dose-related)): lower than controls
- findings at the highest doses (rats; rats): increased liver weights with no histological correlate
- findings in the female reproductive system, repeat-dose toxicology studies (rats; rats): no findings in the female reproductive system
- tolerability, multiple dosing for three month (rats; rats, up to 2000 mg/kg/day): well tolerated
- tolerability, single dosing (rats; rats, up to the limit dose of 2000 mg/kg): well tolerated
- inhibition at 97 µM (hERG channel; human, 97 μM): 25%
- activity at the hERG channel (hERG channel; in vitro): only weakly active
- accumulation in the plasma ([1]; BID dosing (compared with QD)): greater
- accumulation in the plasma ([1]; QD dosing): minimal
- absorption following oral dosing ([1]; healthy male subjects): quickly absorbed
- renal elimination ([1]; healthy male subjects): negligible
- time dependence of pharmacokinetics ([1]; human, in vivo): time independent
- half-life ([1]; human, plasma, oral, healthy male subjects, read-out: elimination half-life (converted)): ~7 h
- time to pharmacokinetic steady state ([1]; multiple dose administration): ≤ 4 days
- dose proportionality of AUC and Cmax ([1]; up to approximately 80 mg): dose proportional
- specificity for NK3 over NK2 (NK2): > 800 fold
